# Test results taken from patent US20120214743A1, “ITCH SUPPRESSANT” (University of Occupational and Environmental Health, Japan, priority 2009, published 2012).
# Ends that are not written are not given here. * marks the point of attachment. SO3H = O=S(=O)(O)*
# Key:
# [1] = tested on: normal human keratinocytes (NHEKs); assay: DNA microarray of mRNA expression in stimulated normal human keratinocytes; format: cell-based; details: histamine 10 μM/mL, SLIGRL-NH2 100 nM
# Method: For DNA microarray analysis, total RNA was extracted from NHEKs with the RNeasy Mini Kit (QIAGEN, Valencia, Calif.). Images obtained from a plate reader were analyzed with DNASIS Array (DNA CHIP RESERCH Inc., Hitachi Software Engineering, Tokyo, Japan), according to the manufacturer's instructions.
# The values are log2 (mRNA expression level of each stimulated sample/expression level of the control).
# [2] = tested on: ICR mice; assay: SP-induced scratch behavior in ICR mice; format: in vivo, mouse; details: transdermal, 0.5 nmol/site in acetone/olive (3:1), tape-stripped skin, 3-4 minutes before SP 100 nmol/site intradermal; FIG. 3
# Method: Since it is considered that external administration of CCK affects keratinocytes, at first, CCK2R agonist was administered transdermally (applying the solution prepared using acetone-olive (3:1)) to itch-related behavior model (ICR mice administered intradermally with SP (100 nmol)).
# The hair was clipped over the rostral part of the murine back one or two days prior to experiment. Before behavioral recording, each mouse (4 animals per observation) was put into an acrylic cage (18×23×11 cm) for at least 1 hr for acclamation. An intradermal injection of SP (100 nmol in normal saline per site) induces scratching of the skin around the injected site by the hind paws in mice. CCKs were topically applied in the two ways, percutaenous application and intradermal injection. For percutaneous application, the shaved back skin was stripped with Scotch tape (3M) 6 times the day before the experiment. The mice were painted on the clipped back with 20 μL CCK (0.5 nmol/site) in acetone/olive (3:1) 3-4 minutes before SP injection (100 nmol/site). […] Immediately after treatment, the animals were put back into the same cage and their behavior was videotaped using a digital video camera for 40 minutes. The frequency of scratch toward the injected site by hind paws was counted for the first 20 minutes with the video.
# [3] = tested on: CCK1R; assay: Western blotting of CCK1R in ICR mouse keratinocytes incubated with SP; format: cell-based; details: SP 30 min to 24 hours, FIG. 2b
# Method: (§1) Keratinocytes from ICR mice were stimulated with SP (10^−8 M) in six-well plates (Corning Glass Works) for 0.5-24 hours, harvested with a rubber policeman, and subjected to extraction with RIPA buffer (Wako, Osaka, Japan; Tris-HCl (pH8.0), 150 mm sodium chloride, 0.5% (wt/vol) sodium deoxycholate, 0.1% (wt/vol) SDS, and 1.0% (wt/vol) NP-40 substitute). Protein samples (20 μg) were separated by 8% SDS-polyacrylamide gel electrophoresis and electroblotted onto polyvinylidene difluoride membranes for 2 hours at 180 mA. After blocking with skim milk solution, the membranes were incubated with rabbit anti-mouse CCK1R (SC-33220; 1:1,000, Santa Cruz, Santa Cruz, Calif.) polyclonal antibodies,or CCK2R (SC-33221; 1:1,000, Santa Cruz) polyclonal antibodies, and the reaction was detected with horseradish peroxidase—conjugated goat anti-rabbit IgG (1:3,000, Bio-Rad, Hercules, Calif.). […] Bands were quantified by densitometry with the help of a CS Analyzer version 2.0 (ATTO, Tokyo, Japan). […]
# (§2) To determine the effect of SP on keratinocytes, ICR mouse keratinocytes were incubated with SP for 30 min to 24 hours and the expression of CCK2R and CCK1R were analyzed by western blotting. CCK2R was detected with antibodies as 78 kDa band, and increased in keratinocytes exposed to SP for 5 or 6 hours (FIG. 2a). […]
# [4] = tested on: CCK2R; assay: Western blotting of CCK2R in ICR mouse keratinocytes incubated with SP; format: cell-based; details: exposed to SP for 5 or 6 hours, FIG. 2a
# Method: as §1, §2
Compound,"ACTL7B mRNA, log2 (expression level of stimulated sample/expression level of the control) ([1]; NHEKs, Ca 0.6 mM, SP 10^−6 M) [log2]","ANKRD6 mRNA, log2 (expression level of stimulated sample/expression level of the control) ([1]; NHEKs, Ca 0.6 mM, SP 10^−6 M) [log2]","BUB1B mRNA, log2 (expression level of stimulated sample/expression level of the control) ([1]; NHEKs, Ca 0.6 mM, SP 10^−6 M) [log2]","CCK2R mRNA, log2 (expression level of stimulated sample/expression level of the control) ([1]; NHEKs, Ca 0.6 mM, SP 10^−6 M) [log2]","FCN3 mRNA, log2 (expression level of stimulated sample/expression level of the control) ([1]; NHEKs, Ca 0.6 mM, SP 10^−6 M) [log2]","MAP3K1 mRNA, log2 (expression level of stimulated sample/expression level of the control) ([1]; NHEKs, Ca 0.6 mM, SP 10^−6 M) [log2]","MMP9 mRNA, log2 (expression level of stimulated sample/expression level of the control) ([1]; NHEKs, Ca 0.6 mM, SP 10^−6 M) [log2]","PDE7B mRNA, log2 (expression level of stimulated sample/expression level of the control) ([1]; NHEKs, Ca 0.6 mM, SP 10^−6 M) [log2]","PTN mRNA, log2 (expression level of stimulated sample/expression level of the control) ([1]; NHEKs, Ca 0.6 mM, SP 10^−6 M) [log2]","SERPINI2 mRNA, log2 (expression level of stimulated sample/expression level of the control) ([1]; NHEKs, Ca 0.6 mM, SP 10^−6 M) [log2]","scratch behavior (frequency of scratch, first 20 minutes) [2]",also measured
Ser-Leu-Ile-Gly-Arg-Leu-NH2 (SLIGRL-NH2) [synthetic agonist of PAR-2],0.84,−0.17,0.52,0.06,−0.62,0.64,0.11,1.00,0.12,0.72,–,"ARG1 mRNA, log2 (expression level of stimulated sample/expression level of the control) ([1]; NHEKs, Ca 0.6 mM, SP 10^−6 M): 0.71 log2; CYP17A1 mRNA, log2 (expression level of stimulated sample/expression level of the control) ([1]; NHEKs, Ca 0.6 mM, SP 10^−6 M): 0.92 log2; changes in the expression levels of CCK2R in stimulated NHEKs [1]: no significant changes"
"Tyr-Met-Gly-Trp-Met-Asp-Phe-NH2 (YMGWMDF-NH2) [CCK7, cholecystokinin analogue in which the tyrosine is not sulfated]",–,–,–,–,–,–,–,–,–,–,no significant reduction,–
"Tyr(SO3H)-Met-Gly-Trp-Met-Asp-Phe-NH2 (Y(SO3H)MGWMDF-NH2; N-terminus assumed; SMILES CSCC[C@H](NC(=O)[C@H](Cc1c[nH]c2ccccc12)NC(=O)CNC(=O)[C@H](CCSC)NC(=O)[C@@H](N)Cc1ccc(OS(=O)(=O)O)cc1)C(=O)N[C@@H](CC(=O)O)C(=O)N[C@@H](Cc1ccccc1)C(N)=O) [CCK7S, natural type cholecystokinin, tyrosine at seventh position from C-terminal sulfated]",–,–,–,–,–,–,–,–,–,–,significant reduction,–
Substance P [SP],0.99,3.20,3.06,8.67,4.50,1.06,1.12,1.02,4.04,1.00,–,"AR mRNA, log2 (expression level of stimulated sample/expression level of the control) ([1]; NHEKs, Ca 0.6 mM, SP 10^−6 M): 0.99 log2; ARG1 mRNA, log2 (expression level of stimulated sample/expression level of the control) ([1]; NHEKs, Ca 0.6 mM, SP 10^−6 M): 1.69 log2; CKM mRNA, log2 (expression level of stimulated sample/expression level of the control) ([1]; NHEKs, Ca 0.6 mM, SP 10^−6 M): 1.72 log2; CLEC7A mRNA, log2 (expression level of stimulated sample/expression level of the control) ([1]; NHEKs, Ca 0.6 mM, SP 10^−6 M): 1.16 log2; CYP17A1 mRNA, log2 (expression level of stimulated sample/expression level of the control) ([1]; NHEKs, Ca 0.6 mM, SP 10^−6 M): 1.40 log2; F10 mRNA, log2 (expression level of stimulated sample/expression level of the control) ([1]; NHEKs, Ca 0.6 mM, SP 10^−6 M): 1.74 log2; ICAM1 mRNA, log2 (expression level of stimulated sample/expression level of the control) ([1]; NHEKs, Ca 0.6 mM, SP 10^−6 M): 1.16 log2; NDRG4 mRNA, log2 (expression level of stimulated sample/expression level of the control) ([1]; NHEKs, Ca 0.6 mM, SP 10^−6 M): 1.00 log2; RASSF7 mRNA, log2 (expression level of stimulated sample/expression level of the control) ([1]; NHEKs, Ca 0.6 mM, SP 10^−6 M): 1.82 log2; SV2B mRNA, log2 (expression level of stimulated sample/expression level of the control) ([1]; NHEKs, Ca 0.6 mM, SP 10^−6 M): 1.54 log2; CCK1R expression in keratinocytes exposed to SP [3]: not augmented; CCK2R expression (78 kDa band) in keratinocytes exposed to SP [4]: increased"
"Met-Gly-Trp-Met-Asp-Phe-NH2 (MGWMDF-NH2) [CCK6, cholecystokinin analogue without the tyrosine]",–,–,–,–,–,–,–,–,–,–,no significant reduction,–
"NCCc1c[nH]cn1 [histamine, Histamine]",0.63,0.00,−1.09,−0.01,−0.23,0.88,4.02,0.12,−0.14,0.38,–,"CKM mRNA, log2 (expression level of stimulated sample/expression level of the control) ([1]; NHEKs, Ca 0.6 mM, SP 10^−6 M): 1.04 log2; F10 mRNA, log2 (expression level of stimulated sample/expression level of the control) ([1]; NHEKs, Ca 0.6 mM, SP 10^−6 M): 1.36 log2; NDRG4 mRNA, log2 (expression level of stimulated sample/expression level of the control) ([1]; NHEKs, Ca 0.6 mM, SP 10^−6 M): 1.59 log2; changes in the expression levels of CCK2R in stimulated NHEKs [1]: no significant changes"
"Asp-Tyr-Met-Gly-Trp-Met-Asp-Phe-NH2 (DYMGWMDF-NH2) [CCK8, cholecystokinin analogue in which the tyrosine is not sulfated]",–,–,–,–,–,–,–,–,–,–,no significant reduction,–
